Reference: patent US8128959B2, “Polymeric pharmaceutical agent for treatment of cancer and method for production of the same” (Hiroshi Maeda, priority 2005, dated 2012)

Experiment: Solubility in water
Assay type: physicochemical
Excerpt: In order to solubilize it in water, the present inventors have conjugated it with amphiphilic polyethylene glycol (PEG) having an average molecular weight of 100-20,000 (preferably about 5,000) (patent document 2) to create a water-soluble derivative thereof.

With `C=CC1=C(C)c2cc3[n-]c(cc4nc(cc5[n-]c(cc1n2)c(C)c5C=C)C(C)=C4CCC(=O)O)c(CCC(=O)O)c3C.[Zn+2]` [ZnPP, zinc-protoporphyrin] as the molecule, how does the solubility in water read?
The solubility in water was “insoluble in water”.
